One assay concerns the target T1, HDAC6 (Homo sapiens, UniProt Q9UBN7).
T1 construct: purchased Enzo Life Sciences, Inc
T1 sequence (Q9UBN7 1-1215): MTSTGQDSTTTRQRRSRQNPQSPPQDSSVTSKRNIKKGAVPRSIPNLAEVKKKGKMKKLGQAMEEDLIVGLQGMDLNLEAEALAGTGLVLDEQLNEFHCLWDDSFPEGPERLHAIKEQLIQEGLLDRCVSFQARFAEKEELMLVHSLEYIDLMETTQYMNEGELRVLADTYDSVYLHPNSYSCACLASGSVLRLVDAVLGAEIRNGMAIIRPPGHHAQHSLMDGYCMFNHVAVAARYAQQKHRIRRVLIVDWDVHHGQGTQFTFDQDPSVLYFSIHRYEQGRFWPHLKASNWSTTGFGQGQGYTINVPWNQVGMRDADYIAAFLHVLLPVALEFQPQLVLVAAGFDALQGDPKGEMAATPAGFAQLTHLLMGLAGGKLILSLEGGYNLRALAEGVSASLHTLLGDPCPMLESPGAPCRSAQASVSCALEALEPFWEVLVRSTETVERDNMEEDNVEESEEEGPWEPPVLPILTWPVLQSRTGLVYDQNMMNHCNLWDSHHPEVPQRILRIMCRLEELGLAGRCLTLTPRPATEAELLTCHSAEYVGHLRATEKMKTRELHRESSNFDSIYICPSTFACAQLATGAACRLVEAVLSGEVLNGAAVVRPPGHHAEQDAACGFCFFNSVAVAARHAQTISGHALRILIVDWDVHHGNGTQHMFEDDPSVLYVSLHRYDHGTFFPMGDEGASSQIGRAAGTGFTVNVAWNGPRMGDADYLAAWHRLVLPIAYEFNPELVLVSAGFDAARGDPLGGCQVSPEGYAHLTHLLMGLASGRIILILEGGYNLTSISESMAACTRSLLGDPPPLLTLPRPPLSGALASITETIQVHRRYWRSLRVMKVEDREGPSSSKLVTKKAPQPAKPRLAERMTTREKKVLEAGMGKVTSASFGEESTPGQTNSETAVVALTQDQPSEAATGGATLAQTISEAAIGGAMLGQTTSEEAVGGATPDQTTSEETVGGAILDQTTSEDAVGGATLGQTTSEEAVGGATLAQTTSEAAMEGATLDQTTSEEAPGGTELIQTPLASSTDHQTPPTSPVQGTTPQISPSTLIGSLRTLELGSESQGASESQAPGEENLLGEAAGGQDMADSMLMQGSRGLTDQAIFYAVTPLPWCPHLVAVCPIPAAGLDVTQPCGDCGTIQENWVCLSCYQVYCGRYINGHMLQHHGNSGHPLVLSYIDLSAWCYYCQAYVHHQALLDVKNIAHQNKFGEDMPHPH
Put plainly: HDAC6 inhibition, fluorometric method (Enzo Fluorometric Drug Discovery Assay Kit). The format is biochemical. The note with it: read-out: Inhibitory activity IC50 on HDAC6. Here is the method:
For this reason, we analyzed the activity of 15 and 19, together with other compounds from the alkyl and triazole series in HDAC6, tested using a fluorometric method (Table 1).
15 µL of HDAC1 (0.4 µg/well) or HDAC6 (0.5 µg/well) were incubated at 37 °C for 30 minutes with 10 µL of inhibitor diluted in 5% DMSO and 25 µL of fluorogenic substrate (0.05 µL/well of 5 mM solution). Reactions were stopped with the developer and trichostatin A, diluted in buffer without BSA, and the plate was incubated at 30 °C for 45 min, followed by measuring the fluorescence (Ex. 360 nm, Em. 450 nm, Fluoroskan, Thermo Scientific).

In assay [1] the test system is breast adenocarcinoma cells of MCF-7 line. Briefly: Cytotoxicity, trypan blue exclusion assay, 24 h. The note with it: Homo sapiens.
Procedure: Walter Berger, Institute of Cancer Research, Vienna Medical University. Human embryonal kidney cells of HEK293 line were obtained from cell culture collection of R.E. Kavetsky Institute of Experimental Pathology, Oncology and Radiobiology, National Academy of Sciences of Ukraine (Kyiv, Ukraine).
Cells were seeded (5 × 10^5/mL for leukemia cells and 1 × 10^5/mL for carcinoma cells) into 24-well tissue culture plates (Greiner Bio-one, Frickenhausen, Germany) and were permitted to adhere and grow for 24 h before the experiment. Short-term (24 h) cytotoxic effect of antitumor drugs was studied under the Evolution 300 Trino microscope (Delta Optical, Nowe Osiny, Poland) after cell staining with trypan blue dye (0.1%).
Final concentration of DMSO in cell culture was 0.5% or less.
All experiments were performed in triplicate and repeated three times. Statistical analysis of data was conducted in GraphPad Prism 7.0 Software (GraphPad Software, Inc.) using Student’s t test. Statistical significance was set at P ≤ 0.05. Evaluation of LC50 values of each compound was done by built-in functions of GraphPad Prism (non-linear regression, curve fit, [Inhibitor] vs. normalized response - Variable slope).
Another assay concerns Jurkat T-leukemia cells. Briefly: Annexin V-PI double staining, FACS. It counts as cell-based, human. As to conditions: 10 µM and 30 µM, 24 h, comparison between compounds. The method, then: To confirm the pro-apoptotic activity of the studied inhibitors, Annexin V-PI double staining was addressed (Figure 7 down).
For cell death analyses, cells were stained with FITC-conjugated annexin V and propidium iodide (PI) using an apoptosis detection kit (BD Biosciences, San Jose, CA), according to the manufacturer’s instructions. In particular, 24 h after the addition of various concentration of CK2-HDAC inhibitors, Jurkat T-leukemia cells were centrifuged at 2,000 rpm, washed twice with 1x PBS, and incubated for 15 minutes in Annexin V binding buffer (BD Pharmingen, USA) containing 1/50 volume of FITC-conjugated Annexin V solution and PI (50 µg/mL). Then samples were diluted two times by appropriate volume of Annexin V binding buffer (BD Pharmingen, USA) and immediately measured on FL1/FL2 (FITC-PI) channels of FACScan flow cytometer (Becton Dickinson, USA). Analysis of the obtained results was carried out using the Cytomation Summit Software v3.1 (Cytomation Inc., USA).

Assay [2] relates to HL-60, HL-60/adr and HL-60/vinc leukemia cells. Briefly: DCFDA assay, hydrogen peroxide production. The format is cell-based, human. The note with it: 10 µM and 30 µM, 24 h. The source says: To reveal potential mechanisms underlying this phenomenon, we studied the impact of the selected compounds on ROS production in both sensitive and MDR cell lines (Figure S8). […] As mitochondria are considered the main source of cellular superoxides, the next aim of our studies was to check whether CK2-HDAC inhibitors induce oxidative stress in tumor cells via depolarization of mitochondria, using the JC-1 assay. However, it was technically impossible to measure JC-1 accumulation on HL-60/adr and HL-60/vinc cells, because JC-1 is a substrate for these ABC-transporter proteins and is actively pumped out into extracellular medium.
Cellular ROS contents were measured by incubating control or drug-treated cells with fluorescent dyes dihydrodichlorofluorescein diacetate (DCFDA, detecting mainly H2O2) and dihydroethidium (DHE, O2^●−-specific) in concentrations of 10 μM at 37 °C for 30 minutes. After incubation with the dyes, cells were washed with PBS and immediately analyzed at FL1 (DCFDA) or FL2 channel (DHE) of FACSCalibur flow cytometer (BD Biosciences, San Jose, CA).

[3] abbreviates: MCF7, 24 h, read-out: LC50 Values of Compounds for Cell Line, MCF-7.

Read-outs that look alike come from different tables or passages of the source.

Broadly, the IC50 is the concentration at which inhibition is half-maximal.

In the case of `CN(C)c1nc2c(Br)c(Br)c(Br)c(Br)c2n1Cc1ccc(C(=O)NO)cc1` [Compound 19, N-Hydroxy-4-((4,5,6,7-tetrabromo-2-(dimethylamino)-1H-benzo[d]imidazol-1-yl)methyl)benzamide], the IC50 at HDAC6 is 20.6 µM. Moreover, the CC50 in assay [1] (setting [3]) was determined as 13.6 ± 0.78 µM.

Turning to `O=C(NO)c1ccc(Cn2nc3c(Br)c(Br)c(Br)c(Br)c3n2)cc1` [Compound 15a, N-Hydroxy-4-((tetrabromo-2H-benzo[d][1,2,3]triazol-2-yl)methyl)benzamide], on HDAC6, the IC50 amounted to 11 µM. Besides, the CC50 in assay [1] (setting [3]) is 13.7 ± 2.67 µM.

As for `CN(C)c1nc2c(Br)c(Br)c(Br)c(Br)c2n1CCc1cn(CCC(=O)NO)nn1` [Compound 7c, N-Hydroxy-3-(4-(2-(4,5,6,7-tetrabromo-2-(dimethylamino)-1H-benzo[d]imidazol-1-yl)ethyl)-1H-1,2,3-triazol-1-yl)propanamide], in the assay on Jurkat T-leukemia cells, the “number of annexin V-positive (apoptotic) cells” value was “significant decrease”. The IC50 at HDAC6 turned out to be 30.7 µM. Moreover, the “impact on hydrogen peroxide production” value in assay [2] is on record as “hydrogen peroxide burst”. Moreover, the CC50 in assay [1] (setting [3]) worked out at 27.8 ± 6.06 µM; in assay [1] (MCF7, read-out: LC50 values of compounds for cell line, MCF-7) it was 15.7 µM.
